In PMC9229798, “Antioxidant Activity and Cytotoxicity of Aromatic Oligosulfides” (Molecules, 2022):

Legend:
[1] = test system: SOD; assay: SOD-protective activity, cytosolic fraction of liver homogenate; assay type: biochemical, Russian sturgeon; details: adrenaline oxidation with biopreparation, compound initial 25 µM
Description: Superoxide dismutase (SOD) is present in almost all aerobic cells and extracellular fluids and is able to inhibit the accumulation of adrenochrome by intercepting O2^–•. The process of splitting O2^–• by SOD into O2 and H2O2 occurs in the body, which is facilitated by the presence of metal ions Cu, Zn, Mn and Fe, playing an important role in lipid peroxidation. […] This system is also suitable for determining the activity of the endogenous enzyme–antioxidant SOD responsible for the utilization of O2^–• [43, 44]. The reaction sequence of adrenaline autoxidation with the adrenochrome formation was described earlier.
SOD-protective activity of the biopreparation was the ability to utilize the superoxide anion radical O2^–•, as determined by the method of Sirota. A cytosolic fraction of the Russian sturgeon liver homogenate was used as the source of SOD. First, the sturgeon liver was washed with cold 0.2 M Tris (tris (hydroxymethyl) aminomethane) buffer (pH 7.8) to remove any traces of blood. All of the procedures were performed at a temperature of 0–4 °C. Next, a homogenate was obtained using a Potter homogenizer (Thomas Scientifc, Swedesboro, NJ, USA) in 0.2 M Tris buffer at a ratio of 1:10. The homogenate was then centrifuged for 10 min at 1000× g to remove partially destroyed cells and nuclei. The resulting supernatant contained the enzymes of the cytosolic fraction of the liver homogenate, including the SOD. Here, 10 µL of the biopreparation was added to a cuvette with 200 µL of bicarbonate buffer (pH 10.65), 10 µL of the tested compound (initial concentrations of these compounds 25 µM) and 10 µL of 0.1% adrenaline solution and was thoroughly and quickly mixed. The rate of adrenaline oxidation without and in the presence of the biopreparation was evaluated by the change in optical density, measured at 347 nm for 3 min. The decrease in the rate of the process in the presence of the biopreparation was used to characterize the SOD-protective activity.

[2] = Antiradical activity, quinoid oxidation (autoxidation) of adrenaline; details: adrenaline autoxidation in alkaline buffer, compound initial 25 µM
[3] = DPPH radical scavenging activity; details: compound solution 0.2 mM in MeOH, DPPH 0.1 mM, 40 min, 20 °C
Description: The redox activity of organosulfur compounds 1–6 can be assessed by the ability to interact with the stable radical 2,2-diphenyl-1-picrylhydrazyl (DPPH). The delocalization of the radical in the aromatic rings of DPPH ensures its high stability. Therefore, this method is widely used to determine the radical scavenging activity of compounds. It is known that there are two main mechanisms by which antioxidant molecules can deactivate free radicals: hydrogen atom transfer (HAT) and single electron transfer (SET). One of them may dominate depending on the conditions, the structure of the antioxidant and the type of analysis, but both will produce identical final products, despite the difference in mechanisms.
The free radical scavenging activity was evaluated using the stable radical 2,2-diphenyl-1-picrylhydrazyl (DPPH), according to the method described by Brand-Williams with a slight modification. Solutions of compounds in MeOH were studied at a concentration of 0.2 mM. The stock DPPH solution contained 0.2 mM of radical in MeOH. An amount of 0.1 mL of the test compound solution was added to 0.1 mL of DPPH solution (0.2 mM) in each cell so that the initial DPPH concentration in cells was 0.1 mM. The microplate was placed in a spectrophotometer and the decrease in the absorbance values of DPPH solution for 40 min at 20 °C was measured at λmax = 517 nm. The results were expressed as scavenging activity, calculated as follows: scavenging activity, % = [(A0 − A1)/A0] × 100, where A0 is the optical density of the control solution DPPH, and A1 is the optical density of the reaction mixture solution.

[4] = LOOH accumulation in non-enzymatic peroxide oxidation of oleic acid; details: 65 °C; for LOOH, k0/k1 (relative rate constant of LOOH formation): 1 mmol/L additive, 3 h
Experimental: The total antioxidant activity of compounds 1–6 during the oxidation of oleic acid with atmospheric oxygen at 65 °C for 3 h was determined by standard methods according to the level of accumulation of the main metabolites. Hydroperoxides as primary products (LOOH) and secondary LPO carbonyl products formed colored complexes with thiobarbituric acid (TBARS).
The kinetics of LOOH and TBARS formation was similar in the control test and in the presence of the studied compounds. The exponential kinetic curves of LOOH accumulation in oleic acid corresponded to the equation CLOOH = a × e^kt with correlation coefficients close to 1. It indicated a pseudo-first order of reaction in the substrate, inherent in a radical process with degenerate chain branching (Figure 2). The kinetic curves of secondary carbonyl products were linear and corresponded to the equation CTBARS = kt + b, with correlation coefficients close to 1 (Figure 3).
The determination of oleic acid oxidation level was performed by the kinetic measurement of the total concentration of the corresponding isomeric LOOH using iodometric titration. The oxidation of constant volume of the acid (15 mL) was carried out in a thermostatic cell using an air flow at 65 °C during 3 h. The oxidation proceeded in the conditions, the oxidation rate was independent of the air volume passing through the cell.
The concentrations of the additives were 1 mM compared with the initial concentration of LOOH in the reaction mixture. Oleic acid (1 mL), CHCl3 (12 mL), glacial AcOH (18 mL), and freshly prepared cold-saturated KI solution (1 mL) were placed in a flask and shaken for 2 min. Then distilled water (100 mL) and a 1% starch solution (1 mL) were added and the resulting mixture was immediately titrated with Na2S2O3 solution (0.01 N). Iodine released in an amount equivalent to that of LOOH was titrated with a standard thiosulfate solution. At the same time, a control test for reagents was carried out: all the reagents except for oleic acid were added to the flask. The LOOH concentration was calculated according to the following formula:
[LOOH] = [(Vs − Vc) × 0.001269 × K × 100]/m, where vs. is the volume of 0.01 N Na2S2O3 solution, consumed during the titration of working sample, mL; Vc is the volume of 0.01 N Na2S2O3 solution, consumed during the titration of control, mL; K is the conversion factor to exactly 0.01 N Na2S2O3 solution; m is the mass of studied oleic acid; and 0.001269 is the amount of I2 expressed in g, equivalent to 1 mL of 0.01 N Na2S2O3 solution. The [LOOH, mmol/L] content equal to 1% corresponded to 78.7 mM of active O2 per 1 L of lipids.

SMILES: c1ccc(SSSc2ccccc2)cc1 [Compound 1, diphenyl trisulfide]
- SOD Activity of Liver Sturgeon, % Inhibition [1]: 41 ± 2.7%
- Antiradical Activity, % Inhibition [2]: 30 ± 1.9%
- DPPH, % (scavenging activity) [3]: non active
- LOOH, k0/k1 (relative rate constant of LOOH formation) [4]: 0.78 ± 0.15
- LOOH accumulation, % of inhibition ([4]; after 3 h incubation of oleic acid): 22.5%

SMILES: COc1ccccc1SSc1ccccc1OC [Compound 2, bis(2-methoxyphenyl) disulfide]
- SOD Activity of Liver Sturgeon, % Inhibition [1]: 60 ± 3.3%
- Antiradical Activity, % Inhibition [2]: 50 ± 3.1%
- DPPH, % (scavenging activity) [3]: non active
- LOOH, k0/k1 (relative rate constant of LOOH formation) [4]: 0.86 ± 0.11

SMILES: COc1ccc(SSc2ccc(OC)c(OC)c2)cc1OC [Compound 3, bis(3,4-dimethoxyphenyl) disulfide]
- DPPH, % (scavenging activity) [3]: non active

SMILES: Oc1ccc(SSc2ccc(O)cc2)cc1 [Compound 4, 4,4′-dihydroxydiphenyl disulfide]
- SOD Activity of Liver Sturgeon, % Inhibition [1]: 75 ± 5.6%
- Antiradical Activity, % Inhibition [2]: 36 ± 2.3%
- DPPH, % (scavenging activity) [3]: 13.42 ± 0.02%
- LOOH, k0/k1 (relative rate constant of LOOH formation) [4]: 0.61 ± 0.03

SMILES: c1ccc(SSc2ccccc2)cc1 [Compound 5, diphenyl disulfide]
- DPPH, % (scavenging activity) [3]: non active

SMILES: CC(C)(C)c1cc(SSc2cc(C(C)(C)C)c(O)c(C(C)(C)C)c2)cc(C(C)(C)C)c1O [Compound 6, bis(3,5-di-tert-butyl-4-hydroxyphenyl) disulfide]
- DPPH, % (scavenging activity) [3]: 81.56 ± 0.07%
